# Assay results from patent US9713702B2, “Methods of electric field induced delivery of compounds, compositions used in delivery, and systems of delivery” (The Board of Trustee of the Leland Stanford Junior …, priority 2011, dated 2017).
# Legend:
# [1] = Release study in solution: electric field triggered release from the conductive hydrogel on a platinum electrode in PBS; type: physicochemical
# Description: The triggered release capabilities of this system were firstly investigated in solution. In phosphate buffered saline (PBS, pH 7.2), a voltage of −0.5 V was applied between two platinum electrodes separated by a distance of 1 cm. The anode was coated with 100 mg of the hydrogel containing 0.25 wt % fluorescein-encapsulated PPy nanoparticles with a thickness around 0.1 cm. The resistivity of the swelled hydrogel and the PBS buffer was measured to be 5400 Ω·cm and 64 Ω·cm, respectively. Then, the electric field across the hydrogel was calculated to be approximately −4.5 V/cm. The electrical stimulus was applied for 10 seconds, which was repeated every five minutes, followed by measurements of the concentration of free fluorescein in the solution. […] For each stimulus, ˜20 ng of fluorescein was released. The voltage between the two electrodes was then set at −1.5 V (corresponding to an electric field across the hydrogel of −13.6 V/cm). […] The higher amount observed during the first stimulus may result from higher drug loading within the nanoparticles. Our interest in the practicability of this triggered release led us to perform a long-term release study over seven days. With the voltage between the two electrodes at −1.0 V (corresponding to an electric field across the hydrogel of −9.0 V/cm), the pulsed electric stimulus was applied to the conductive hydrogels for 20 s, once every 24 hr, followed by concentration measurements of free fluorescein in solution. […] In the case of daunorubicin, an electric field across the hydrogel of 4.5 V/cm (the set voltage was 0.5 V) was applied for 10 seconds every 5 minutes.
# By applying voltage until no obvious drug release could be detected, the loading percentage of fluorescein and daunorubicin in PPy nanoparticles was calculated to be around 3.6 wt % and 3.2 wt %. […] Only with an electric stimulus can drugs be released on command. This represents an important advantage of our delivery system over conventional sustained release of drugs from hydrogel.
# The platinum anode was firstly coated with the PLGA-PEG-PLGA polymer solution (100 mg of polymer) containing 0.25 wt % fluorescein (or daunorubicin)-encapsulated PPy nanoparticles, followed by solidification of the gel at room temperature. The PPy nanoparticles in the solidified gel was calculated to be 1 wt %. The coated platinum anode was then immersed in phosphate buffered saline (PBS, pH 7.2) together with a counter platinum electrode with a separated distance of 1 cm. For the release study in solution, specific voltages were applied between the two electrodes, followed by measurements of the concentration of released molecules by fluorescent assays.
# [2] = Description: D-luciferin-encapsulated polypyrrole nanoparticles were synthesized the by an emulsion polymerization which could control the sizes of the nanoparticles. Luciferin served as a model molecule was incorporated in the polymer nanoparticle. […] At 4° C., 0.05 wt % of polypyrrole nanoparticles were dispersed in the water solution containing 15 wt % of poly[(D,L-lactic acid)-co-(glycolic acid)]-b-poly(ethylene oxide)-b-poly[(D,L-lactic acid)-co-(glycolic acid)] (PLGA-PEG-PLGA).
# An electrical stimulus of −2.0 V/cm was applied for 10 seconds on the platinum electrodes in every 5 minutes, followed by measuring the concentration of luciferin in the solution.
Structure (SMILES),loading percentage in PPy nanoparticles ([1]; calculated by applying voltage until no obvious drug release could be detected) [wt %],"amount of daunorubicin released upon each stimulus ([1]; daunorubicin-encapsulated PPy nanoparticles in hydrogel, PBS pH 7.2, 0.5 V (4.5 V/cm across hydrogel), 10 seconds every 5 minutes) [ng]","release from PPy nanoparticles in hydrogel without applying voltage ([1]; drug encapsulated in PPy nanoparticles in hydrogel, no electric field (control))","sustained release from hydrogel without encapsulation in PPy nanoparticles ([1]; drug in PLGA-PEG-PLGA hydrogel, not encapsulated in PPy nanoparticles, no voltage)","release of luciferin upon electric stimulus ([2]; D-luciferin-encapsulated polypyrrole nanoparticles in PLGA-PEG-PLGA hydrogel, -2.0 V/cm, 10 seconds every 5 minutes)","release of luciferin without applying voltage ([2]; D-luciferin-encapsulated polypyrrole nanoparticles in hydrogel, control without voltage)"
COc1cccc2c1C(=O)c1c(O)c3c(c(O)c1C2=O)C[C@@](O)(C(C)=O)C[C@@H]3O[C@H]1C[C@H](N)[C@H](O)[C@H](C)O1 [daunorubicin],~3.2,~25,no obvious release,most of the drugs in hydrogel were released in 4 days,,
"O=C(O)[C@H]1CSC(c2nc3ccc(O)cc3s2)=N1 [luciferin, D-luciferin]",,,,,released by applying the electric stimulus,no release
